Measurements from patent US20090298825A1, “Bicycloheteroaryl Compounds as P2x7 Modulators and Uses Thereof” (priority 2006, published 2009).

Target: T1, P2X7 receptor (Homo sapiens, UniProt Q99572)
T1 construct: endogenous in cells; host or cells: THP-1 cells differentiated with LPS and IFN-γ
T1 sequence (Q99572 1-595): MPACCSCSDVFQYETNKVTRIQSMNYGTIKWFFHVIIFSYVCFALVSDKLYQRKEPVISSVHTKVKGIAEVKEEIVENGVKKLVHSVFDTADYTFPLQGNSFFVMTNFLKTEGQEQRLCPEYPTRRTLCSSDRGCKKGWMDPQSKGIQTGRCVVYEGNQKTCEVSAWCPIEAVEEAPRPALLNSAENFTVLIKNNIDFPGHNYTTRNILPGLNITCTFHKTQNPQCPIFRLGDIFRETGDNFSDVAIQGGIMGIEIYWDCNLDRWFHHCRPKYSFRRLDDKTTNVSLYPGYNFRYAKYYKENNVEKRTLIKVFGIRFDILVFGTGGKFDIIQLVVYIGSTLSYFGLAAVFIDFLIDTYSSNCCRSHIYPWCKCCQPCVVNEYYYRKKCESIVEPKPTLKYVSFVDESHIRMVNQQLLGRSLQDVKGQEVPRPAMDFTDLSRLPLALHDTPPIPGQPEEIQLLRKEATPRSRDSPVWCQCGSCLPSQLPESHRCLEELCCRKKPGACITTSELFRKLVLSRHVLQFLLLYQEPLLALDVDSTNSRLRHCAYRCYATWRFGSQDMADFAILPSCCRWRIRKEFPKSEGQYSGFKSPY
Test: IL-1β release assay in differentiated THP-1 cells stimulated with BzATP (Example 9)
Assay type: cell-based
Conditions: 0.1 μM concentration, read-out: IL-1β % Inhib. @ 0.3 or 0.1 μM
Method: The cells are then pretreated for 30 minutes with the compound of interest at the appropriate concentration in RPMI media containing 100 IU/mL penicillin, 100 ug/mL streptomycin. […] 30 uL of cell supernatant is then collected and IL-1β levels determined via ELISA (R&D systems Cat. # HSLB50) according to manufacturer's recommendations using the Tecan Safire plate reader. Background adjusted IL-1β levels of drug treated and non-treated cells are used to calculate the percent inhibition.
The compounds set forth in Table 1 were tested for activity in a cellular model as described herein. […] Measurements were made and IC50 values, presented in Table 2, below, were determined by fitting the data to a four parameter logistic equation using GraphPad Prism software (GraphPad Software, Inc). The equation may be expressed by the following formula:
Y=Bottom+(Top-Bottom)/(1+10̂((Log EC50−X)*HillSlope))
Where X is the logarithm of concentration, Y is the response and Y starts at Bottom and goes to Top with a sigmoid shape.

inhibition at 0.1 µM	SMILES
0 to 25%	CCOC(=O)N1CCC(n2ccc3c(NC(=O)c4ccc(C)cc4C)cccc3c2=O)CC1 [ID 766]
0 to 25%	CCOC(=O)N1CCC(n2ccc3c(NC(=O)c4cc(C)ccc4C)cccc3c2=O)CC1 [ID 767]
0 to 25%	CCOC(=O)N1CCC(n2ccc3c(NC(=O)c4cc(Cl)cc(Cl)c4)cccc3c2=O)CC1 [ID 768]
26 to 50%	CCOC(=O)N1CCC(n2ccc3c(NC(=O)c4cc(OC)cc(OC)c4)cccc3c2=O)CC1 [ID 769]
0 to 25%	CCOC(=O)N1CCC(n2ccc3c(NC(=O)c4cccc(C)c4)cccc3c2=O)CC1 [ID 770]
0 to 25%	CCOC(=O)N1CCC(n2ccc3c(NC(=O)c4ccc(OCC)cc4)cccc3c2=O)CC1 [ID 771]
0 to 25%	CCOC(=O)N1CCC(n2ccc3c(NC(=O)c4ccc(-c5ccccc5)cc4)cccc3c2=O)CC1 [ID 772]
26 to 50%	CCOC(=O)N1CCC(n2ccc3c(NC(=O)c4ccc(C(C)(C)C)cc4)cccc3c2=O)CC1 [ID 773]
0 to 25%	CCOC(=O)N1CCC(n2ccc3c(NC(=O)C(C)c4ccccc4)cccc3c2=O)CC1 (stereo not shown) [ID 774]
0 to 25%	CCOC(=O)N1CCC(n2ccc3c(NC(=O)CCc4ccccc4OC)cccc3c2=O)CC1 [ID 775]
0 to 25%	CCOC(=O)N1CCC(n2ccc3c(NC(=O)Cc4ccccc4F)cccc3c2=O)CC1 [ID 777]
0 to 25%	CCOC(=O)N1CCC(n2ccc3c(NC(=O)Cc4ccccc4Cl)cccc3c2=O)CC1 [ID 778]
0 to 25%	CCOC(=O)N1CCC(n2ccc3c(NC(=O)Cc4ccccc4OC)cccc3c2=O)CC1 [ID 779]
0 to 25%	CCOC(=O)N1CCC(n2ccc3c(NC(=O)Cc4ccccc4C)cccc3c2=O)CC1 [ID 781]
0 to 25%	CCOC(=O)N1CCC(n2ccc3c(NC(=O)Cc4cccc(OC)c4)cccc3c2=O)CC1 [ID 782]
0 to 25%	CCOC(=O)N1CCC(n2ccc3c(NC(=O)Cc4cccc(C)c4)cccc3c2=O)CC1 [ID 784]

inhibition at 0.1 µM	SMILES
0 to 25%	CCOC(=O)N1CCC(n2ccc3c(NC(=O)Cc4ccc(OC)cc4)cccc3c2=O)CC1 [ID 785]
0 to 25%	CCOC(=O)N1CCC(n2ccc3c(NC(=O)Cc4ccc(C)cc4)cccc3c2=O)CC1 [ID 787]
0 to 25%	CCOC(=O)N1CCC(n2ccc3c(NC(=O)CCCc4ccccc4)cccc3c2=O)CC1 [ID 788]
0 to 25%	CCOC(=O)N1CCC(n2ccc3c(NC(=O)c4cc5ccccc5o4)cccc3c2=O)CC1 [ID 789]
0 to 25%	CCOC(=O)N1CCC(n2ccc3c(NC(=O)c4ccc(C)c(Cl)c4)cccc3c2=O)CC1 [ID 793]
0 to 25%	CCOC(=O)N1CCC(n2ccc3c(NC(=O)c4ccc(Cl)cc4C)cccc3c2=O)CC1 [ID 794]
0 to 25%	CCOC(=O)N1CCC(n2ccc3c(NC(=O)c4cccc5c4OCCO5)cccc3c2=O)CC1 [ID 798]
0 to 25%	CCOC(=O)N1CCC(n2ccc3c(NC(=O)c4ccc5c(c4)OCCCO5)cccc3c2=O)CC1 [ID 799]
0 to 25%	CCOC(=O)N1CCC(n2ccc3c(NC(=O)c4cccc(Cl)c4C)cccc3c2=O)CC1 [ID 801]
0 to 25%	CCOC(=O)N1CCC(n2ccc3c(NC(=O)Cc4ccccc4OCC)cccc3c2=O)CC1 [ID 805]
0 to 25%	CCOC(=O)N1CCC(n2ccc3c(NC(=O)CCc4cccc(C)c4)cccc3c2=O)CC1 [ID 807]
0 to 25%	CCOC(=O)N1CCC(n2ccc3c(NC(=O)c4cccc(C)c4Cl)cccc3c2=O)CC1 [ID 808]
0 to 25%	CCOC(=O)N1CCC(n2ccc3c(NC(=O)c4ccc(OC)c(C)c4)cccc3c2=O)CC1 [ID 809]
0 to 25%	CCOC(=O)N1CCC(n2ccc3c(NC(=O)CCc4cccc(Cl)c4)cccc3c2=O)CC1 [ID 811]
0 to 25%	CCOC(=O)N1CCC(n2ccc3c(NC(=O)c4ccc(CC(C)C)cc4)cccc3c2=O)CC1 [ID 812]

More lines, now with the values behind:

SMILES	inhibition at 0.1 µM
CCOC(=O)N1CCC(n2ccc3c(NC(=O)CCc4ccc(OC)cc4)cccc3c2=O)CC1 [ID 776]	0 to 25%
CCOC(=O)N1CCC(n2ccc3c(NC(=O)Cc4cc(OC)ccc4OC)cccc3c2=O)CC1 [ID 780]	0 to 25%
CCOC(=O)N1CCC(n2ccc3c(NC(=O)Cc4ccc(OC)c(OC)c4)cccc3c2=O)CC1 [ID 783]	0 to 25%
CCOC(=O)N1CCC(n2ccc3c(NC(=O)Cc4ccc(OCC)cc4)cccc3c2=O)CC1 [ID 786]	0 to 25%
CCOC(=O)N1CCC(n2ccc3c(NC(=O)Cc4ccc5c(c4)OCO5)cccc3c2=O)CC1 [ID 790]	0 to 25%
CCOC(=O)N1CCC(n2ccc3c(NC(=O)Cc4cc(OC)cc(OC)c4)cccc3c2=O)CC1 [ID 791]	0 to 25%
CCOC(=O)N1CCC(n2ccc3c(NC(=O)c4cc(C)c(OC)c(C)c4)cccc3c2=O)CC1 [ID 792]	0 to 25%
CCOC(=O)N1CCC(n2ccc3c(NC(=O)CC4C[C@@H]5CC[C@H]4C5)cccc3c2=O)CC1 (stereo partly shown) [ID 795]	0 to 25%
CCOC(=O)N1CCC(n2ccc3c(NC(=O)C45CC6C[C@H](C4)C[C@@](O)(C6)C5)cccc3c2=O)CC1 [ID 796]	0 to 25%
CCOC(=O)N1CCC(n2ccc3c(NC(=O)[C@@]45C[C@@H]6C[C@@H](C[C@@H]4C6)C5)cccc3c2=O)CC1 [ID 797]	0 to 25%
CCOC(=O)N1CCC(n2ccc3c(NC(=O)Cc4cc(C)cc(C)c4)cccc3c2=O)CC1 [ID 802]	0 to 25%
CCOC(=O)N1CCC(n2ccc3c(NC(=O)C4C[C@@H]5CC[C@H]4C5)cccc3c2=O)CC1 (stereo partly shown) [ID 803]	0 to 25%
CCOC(=O)N1CCC(n2ccc3c(NC(=O)Cc4ccc(OC)cc4OC)cccc3c2=O)CC1 [ID 804]	0 to 25%
CCOC(=O)N1CCC(n2ccc3c(NC(=O)Cc4ccc(OC)c(C)c4)cccc3c2=O)CC1 [ID 806]	0 to 25%
CCOC(=O)N1CCC(n2ccc3c(NC(=O)CCc4ccc(C)cc4C)cccc3c2=O)CC1 [ID 810]	0 to 25%

Same assay, conditions: 0.3 μM concentration, read-out: IL-1β % Inhib. @ 0.3 or 0.1 μM

inhibition at 0.3 µM	SMILES
0 to 25%	O=C(CC1(O)CCCCCC1)Nc1cccc2c(=O)n(C3CCNCC3)ccc12 [ID 813]
> 76%	O=C(Cc1ccc(Cl)c(Cl)c1)Nc1cccc2c(=O)n(C3CCNC3)ccc12 (stereo not shown) [ID 815]
26 to 50%	O=C(Cc1ccc(Cl)c(Cl)c1)Nc1cccc2c(=O)n(C3CCNCC3)ccc12 [ID 816]
0 to 25%	CC(C(=O)Nc1cccc2c(=O)n(C3CCNCC3)ccc12)c1ccc(Cl)cc1 (stereo not shown) [ID 817]
> 76%	O=C(Cc1ccc(Cl)c(C(F)(F)F)c1)Nc1cccc2c(=O)n(C3CCNCC3)ccc12 [ID 818]
51 to 75%	O=C(CC1CCCCCC1)Nc1cccc2c(=O)n(C3CCNCC3)ccc12 [ID 819]
> 76%	O=C(CC1CCCCCC1)Nc1cccc2c(=O)n(C3CCNC3)ccc12 (stereo not shown) [ID 820]
51 to 75%	CC(C(=O)Nc1cccc2c(=O)n(C3CCNC3)ccc12)c1ccc(Cl)cc1 (stereo not shown) [ID 821]
> 76%	O=C(Cc1ccc(Cl)c(Cl)c1)Nc1cccc2c(=O)n([C@H]3CCNC3)ccc12 [ID 822]

Same assay, conditions: four parameter logistic fit, read-out: IL-1β IC50

IC50	SMILES
760 nM	O=C(CC1(O)CCCCCC1)Nc1cccc2c(=O)n(C3CCNCC3)ccc12 [ID 813]
125 nM	O=C(Cc1ccc(Cl)c(Cl)c1)Nc1cccc2c(=O)n(C3CCNC3)ccc12 (stereo not shown) [ID 815]
305 nM	O=C(Cc1ccc(Cl)c(Cl)c1)Nc1cccc2c(=O)n(C3CCNCC3)ccc12 [ID 816]
902 nM	CC(C(=O)Nc1cccc2c(=O)n(C3CCNCC3)ccc12)c1ccc(Cl)cc1 (stereo not shown) [ID 817]
99 nM	O=C(Cc1ccc(Cl)c(C(F)(F)F)c1)Nc1cccc2c(=O)n(C3CCNCC3)ccc12 [ID 818]
206 nM	O=C(CC1CCCCCC1)Nc1cccc2c(=O)n(C3CCNCC3)ccc12 [ID 819]
25.7 nM	O=C(CC1CCCCCC1)Nc1cccc2c(=O)n(C3CCNC3)ccc12 (stereo not shown) [ID 820]
252 nM	CC(C(=O)Nc1cccc2c(=O)n(C3CCNC3)ccc12)c1ccc(Cl)cc1 (stereo not shown) [ID 821]
31.3 nM	O=C(Cc1ccc(Cl)c(Cl)c1)Nc1cccc2c(=O)n([C@H]3CCNC3)ccc12 [ID 822]
